Data from patent US7713994B2 (Wyeth LLC, priority 2005, dated 2010).
Like-named read-outs stand apart in the source and are kept apart here.

What was measured:
cyclin D1/cdk 4 enzyme = molecular target: T1, cyclin D1/cdk 4 enzyme (Homo sapiens, UniProt P11802); assay: CDK4 ELISA kinase assay (phospho-Rb ser 795 detection); format: biochemical
T1 construct: made in house; host or cells: Sf9 insect cells, recombinant baculovirus
In short: (§1)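 Partially purified Sf9-expressed cyclin D1/CDK4, cyclin E/CDK2 or cyclin B/CDK1 phosphorylated plate-bound GST-Rb C-terminal fragment with 200 μM ATP at 30° C for 1 h.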

cyclin E/CDK2 enzyme = molecular target: T2, cyclin E/CDK2 enzyme (Homo sapiens, UniProt P24941); assay: CDK2 ELISA kinase assay (phospho-Rb ser 795 detection); format: biochemical
T2 construct: made in house; host or cells: Sf9 insect cells, recombinant baculovirus
In short: as §1

cyclin B/CDK1 enzyme = molecular target: T3, cyclin B/CDK1 enzyme (Homo sapiens, UniProt P06493); assay: CDK1 ELISA kinase assay (phospho-Rb ser 795 detection); format: biochemical
T3 construct: purchased New England BioLabs; host or cells: Sf9 insect cells, recombinant baculovirus
In short: as §1

BT474 = assay: Cytotoxicity assay (SRB), BT474; format: cell-based
In short: (§2)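 BT474 (12000 cells/well) was treated for 6 days, whereas HCT-116 (4000), LoVo (6000) and MCF-7 (6000) were treated for 3 days, all in RPMI 1640 containing 5% FBS. Surviving-cell percentage came from SRB dye binding measured at 540 nm.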

HCT-116 = assay: Cytotoxicity assay (SRB), HCT-116; format: cell-based; conditions: HCT116 cells, SRB, read-out: In Vitro Cellular Activity IC50 HCT116
In short: as §2

LoVo = assay: Cytotoxicity assay (SRB), LoVo; format: cell-based; conditions: LoVo cells, SRB, read-out: In Vitro Cellular Activity IC50 LOVO
In short: as §2

MCF-7 = assay: Cytotoxicity assay (SRB), MCF-7; format: cell-based; conditions: MCF-7 cells, SRB, read-out: In Vitro Cellular Activity IC50 MCF-7
In short: as §2

[1] = In Vitro Enzyme Assays, 200 μM ATP, read-out: CDK4 IC50
[2] = In Vitro Enzyme Assays, read-out: CDK2 IC50
[3] = In Vitro Enzyme Assays, read-out: CDK1 IC50
[4] = Homo sapiens, BT-474, 144 h, BT474 cells, SRB, 6 days; read-out: In Vitro Cellular Activity IC50 BT474
[5] = Homo sapiens, HCT-116, 72 h, three days
[6] = Homo sapiens, LoVo, 72 h, three days
[7] = Homo sapiens, MCF7, 72 h, three days
[8] = In Vitro Enzyme Assay, cyclin D1/cdk 4, read-out: CDK4 IC50
[9] = In Vitro Enzyme Assay, cyclin E/CDK2, read-out: CDK2 IC50
[10] = In Vitro Enzyme Assay, cyclin B/CDK1, read-out: CDK1 IC50
[11] = Homo sapiens, BT-474, 144 h, BT474 cells, 6 days, SRB; read-out: In Vitro Cellular Activity IC50 BT474
[12] = Homo sapiens, HCT-116, 72 h, 3 days
[13] = Homo sapiens, LoVo, 72 h, 3 days
[14] = Homo sapiens, MCF7, 72 h, 3 days
[15] = In Vitro Enzyme Assay, read-out: CDK4 IC50
[16] = In Vitro Enzyme Assay, read-out: CDK2 IC50
[17] = In Vitro Enzyme Assay, read-out: CDK1 IC50

T3 sequence (P06493 whole entry): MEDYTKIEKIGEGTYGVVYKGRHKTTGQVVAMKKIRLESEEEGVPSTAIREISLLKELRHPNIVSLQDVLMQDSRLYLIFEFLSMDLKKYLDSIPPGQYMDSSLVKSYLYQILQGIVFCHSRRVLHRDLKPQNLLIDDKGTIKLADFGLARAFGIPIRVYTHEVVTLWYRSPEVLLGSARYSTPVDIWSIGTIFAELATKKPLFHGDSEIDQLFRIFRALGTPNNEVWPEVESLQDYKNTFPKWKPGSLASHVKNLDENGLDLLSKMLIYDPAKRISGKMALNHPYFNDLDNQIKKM
T3 sequence (P14635 whole entry partner): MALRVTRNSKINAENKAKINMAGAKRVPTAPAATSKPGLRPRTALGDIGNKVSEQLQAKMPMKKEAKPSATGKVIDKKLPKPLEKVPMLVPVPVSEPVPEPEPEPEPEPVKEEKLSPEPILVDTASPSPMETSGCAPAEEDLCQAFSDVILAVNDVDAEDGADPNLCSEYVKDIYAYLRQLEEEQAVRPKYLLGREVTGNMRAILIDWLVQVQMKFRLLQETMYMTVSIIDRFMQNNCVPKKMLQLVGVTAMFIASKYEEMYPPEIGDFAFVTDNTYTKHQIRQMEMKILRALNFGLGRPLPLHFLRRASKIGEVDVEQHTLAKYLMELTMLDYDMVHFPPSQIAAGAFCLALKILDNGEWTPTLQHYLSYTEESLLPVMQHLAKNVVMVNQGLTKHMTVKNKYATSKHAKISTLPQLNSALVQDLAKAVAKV
T1 sequence (P11802 whole entry, species assumed): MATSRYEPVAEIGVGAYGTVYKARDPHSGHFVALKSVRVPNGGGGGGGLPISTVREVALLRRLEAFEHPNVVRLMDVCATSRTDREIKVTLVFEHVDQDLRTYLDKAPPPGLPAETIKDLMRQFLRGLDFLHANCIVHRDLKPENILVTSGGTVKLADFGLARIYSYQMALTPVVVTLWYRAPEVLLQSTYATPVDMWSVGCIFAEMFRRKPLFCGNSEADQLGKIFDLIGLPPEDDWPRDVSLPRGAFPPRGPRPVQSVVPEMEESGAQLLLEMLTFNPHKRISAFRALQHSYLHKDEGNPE
T1 sequence (P24385 whole entry partner, species assumed): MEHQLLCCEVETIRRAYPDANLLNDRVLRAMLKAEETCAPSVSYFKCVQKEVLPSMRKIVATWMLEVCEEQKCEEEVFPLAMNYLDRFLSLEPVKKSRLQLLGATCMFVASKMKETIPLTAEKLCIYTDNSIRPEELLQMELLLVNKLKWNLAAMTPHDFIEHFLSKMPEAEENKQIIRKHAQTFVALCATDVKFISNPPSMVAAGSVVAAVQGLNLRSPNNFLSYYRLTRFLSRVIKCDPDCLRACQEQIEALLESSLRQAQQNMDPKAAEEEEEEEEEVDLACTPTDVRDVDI

Compound | IC50 (cyclin D1/cdk 4 enzyme; [1]) | IC50 (cyclin E/CDK2 enzyme; [2]) | IC50 (cyclin B/CDK1 enzyme; [3]) | IC50 (cyclin D1/cdk 4 enzyme; [8]) | IC50 (cyclin E/CDK2 enzyme; [9]) | IC50 (cyclin B/CDK1 enzyme; [10]) | IC50 (BT474; [4]) | IC50 (HCT-116; [5]) | IC50 (LoVo; [6]) | IC50 (MCF-7; [7]) | IC50 (BT474; [11]) | IC50 (HCT-116; [12]) | IC50 (LoVo; [13]) | IC50 (MCF-7; [14]) | other results
O=C1NC(=O)c2ccc(-c3ccsc3)cc2/C1=C/NCc1ccc(OC(F)F)c(O)c1 [Example 200, (4Z)-4-({[4-(Difluoromethoxy)-3-hydroxybenzyl]amino}methylene)-6-thien-3-ylisoquinoline-1,3(2H,4H)-dione] | 0.009 µM | 26.5 µM | > 50 µM | – | – | – | 9.3 µM | 5.4 µM | 4.7 µM | 7.2 µM | – | – | – | – | –
O=C1NC(=O)c2ccc(Br)cc2/C1=C/NCc1ccc(OCc2ccccc2)c(O)c1 [Example 147, (4Z)-4-({[4-(Benzyloxy)-3-hydroxybenzyl]amino}methylene)-6-bromoisoquinoline-1,3(2H,4H)-dione] | 4.6 µM | 27.7 µM | > 50 µM | – | – | – | > 50 µM | 38 µM | 40 µM | 36 µM | – | – | – | – | –
O=C1NC(=O)c2ccc(Br)cc2/C1=C/NCc1cc(O)c(O)c(O)c1 [Example 79] | 0.026 µM | 2.2 µM | 42.6 µM | – | – | – | 37.7 µM | > 50 µM | 49.5 µM | > 50 µM | – | – | – | – | –
CC(=O)Oc1cc(CN/C=C2\C(=O)NC(=O)c3ccc(Br)cc32)cc2c1OC(C)(C)O2 [Example 872, 6-({[(Z)-(6-Bromo-1,3-dioxo-2,3-dihydroisoquinolin-4(1H)-ylidene)methyl]amino}methyl)-2,2-dimethyl-1,3-benzodioxol-4-yl acetate] | – | – | – | – | – | – | – | – | – | – | > 50 µM | 28.6 µM | 47.1 µM | 34.8 µM | IC50 (cyclin D1/cdk 4 enzyme; [15]): 34.7 µM; IC50 (cyclin E/CDK2 enzyme; [16]): 23.6 µM; IC50 (cyclin B/CDK1 enzyme; [17]): 1.2 µM
COc1ccc(CN/C=C2\C(=O)NC(=O)c3ccc(-c4ccc(F)cc4)cc32)cc1O [Example 208, (4Z)-6-(4-Fluorophenyl)-4-{[(3-hydroxy-4-methoxybenzyl)amino]methylene}iso-quinoline-1,3(2H,4H)-dione] | 0.009 µM | 30.3 µM | > 50 µM | – | – | – | 8.2 µM | 5.7 µM | 15 µM | 3.4 µM | – | – | – | – | –
CC(=O)Oc1cc(CN/C=C2\C(=O)NC(=O)c3ccc(Br)cc32)cc2c1OC(C)(C)O2 [Example 268, 6-({[(Z)-(6-Bromo-1,3-dioxo-2,3-dihydroisoquinolin-4(1H)-ylidene)methyl]amino}methyl)-2,2-dimethyl-1,3-benzodioxol-4-yl acetate] | 34.7 µM | 23.6 µM | 1.2 µM | – | – | – | > 50 µM | 29 µM | 47 µM | 35 µM | – | – | – | – | –
COCC(C)N1CCN(c2ccc(N/C=C3\C(=O)NC(=O)c4ccc(I)cc43)cc2)CC1 (stereo not drawn) [Example 399, (4Z)-6-Iodo-4-[({4-[4-(2-methoxy-1-methylethyl)piperazin-1-yl]phenyl}amino)methylene]isoquinoline-1,3(2H,4H)-dione] | 0.34 µM | > 50 µM | > 50 µM | – | – | – | – | – | – | – | 7.57 µM | 3 µM | 7 µM | 5.4 µM | –
CC(=O)Nc1cc(CN/C=C2\C(=O)NC(=O)c3ccc(Br)cc32)cc(O)c1O [Example 213] | 0.19 µM | > 50 µM | > 50 µM | – | – | – | > 50 µM | > 50 µM | 48 µM | > 50 µM | – | – | – | – | –
CCN1CCN(c2ccc(N/C=C3\C(=O)NC(=O)c4ccc(-c5ccoc5)cc43)cn2)CC1 [Example 416, (4Z)-4-({[6-(4-Ethylpiperazin-1-yl)pyridin-3-yl]amino}methylene)-6-(3-furyl)isoquinoline-1,3(2H,4H)-dione] | 0.13 µM | > 50 µM | > 50 µM | – | – | – | – | – | – | – | 2.5 µM | 2.7 µM | 3.1 µM | 6.2 µM | –
CC(C)(O)[C@H]1CCCN1Cc1ccc(N/C=C2\C(=O)NC(=O)c3ccc(I)cc32)cc1 [Example 369, D-4-({4-[2-(1-Hydroxy-1-methyl-ethyl)-pyrrolidin-1-ylmethyl]-phenylamino}-methylene)-6-iodo-4H-isoquinoline-1,3-dione] | 0.46 µM | > 50 µM | > 50 µM | – | – | – | 1.2 µM | 4.3 µM | 5 µM | 1.7 µM | – | – | – | – | –
6-Benzofuran-2-yl-4-[(3,4-dihydroxy-benzylamino)-methylene]-4H-isoquinoline-1,3-dione [Example 643] | – | – | – | 3.5 µM | > 50 µM | > 50 µM | – | – | – | – | – | – | – | – | IC50 (BT474; BT474 cells, 6 days, SRB; read-out: In Vitro Cellular Activity IC50 BT474): 13.4 µM; IC50 (HCT-116; 3 days): 14.9 µM; IC50 (LoVo; 3 days): 11.7 µM; IC50 (MCF-7; 3 days): 9.2 µM
CN1CCN(CCN(C)c2ccc(NC=C3C(=O)NC(=O)c4ccc(Br)cc43)cc2)CC1 (stereo in doubt) [Example 870, (4Z)-6-Bromo-4-{[(4-{methyl[2-(4-methylpiperazin-1-yl)ethyl]amino}phenyl)amino]methylene}isoquinoline-1,3(2H,4H)-dione] | – | – | – | – | – | – | – | – | – | – | 10.2 µM | 3 µM | 10.5 µM | 9.2 µM | IC50 (cyclin D1/cdk 4 enzyme; [15]): 2.6 µM; IC50 (cyclin E/CDK2 enzyme; [16]): > 50 µM; IC50 (cyclin B/CDK1 enzyme; [17]): > 50 µM

Now from value to compound, other results behind:

IC50 (cyclin D1/cdk 4 enzyme; [1]) | IC50 (cyclin E/CDK2 enzyme; [2]) | IC50 (cyclin B/CDK1 enzyme; [3]) | IC50 (cyclin D1/cdk 4 enzyme; [8]) | IC50 (cyclin E/CDK2 enzyme; [9]) | IC50 (cyclin B/CDK1 enzyme; [10]) | Compound | IC50 (BT474; [4]) | IC50 (HCT-116; [5]) | IC50 (LoVo; [6]) | IC50 (MCF-7; [7]) | IC50 (BT474; [11]) | IC50 (HCT-116; [12]) | IC50 (LoVo; [13]) | IC50 (MCF-7; [14]) | other results
– | – | – | 23.2 µM | 25.4 µM | 20.3 µM | O=C1NC(=O)c2ccccc2C1=CNCc1ccc(NS(=O)(=O)CC(F)(F)F)cc1 [Example 591, 2,2,2-Trifluoro-ethanesulfonic acid (4{[(1,3-dioxo-2,3-dihydro-1H-isoquinolin-4-ylidenemethyl)-amino]-methyl}-phenyl)-amide] | – | – | – | – | 36.4 µM | 41.5 µM | > 50 µM | 40 µM | –
– | – | – | 1.2 µM | 38 µM | > 50 µM | N#Cc1cccc(-c2ccc3c(c2)C(=CNCc2ccc(O)c(O)c2)C(=O)NC3=O)c1 [Example 785, 3-{4-[(3,4-Dihydroxy-benzylamino)-methylene]-1,3-dioxo-1,2,3,4-tetrahydro-isoquinolin-6-yl}-benzonitrile] | – | – | – | – | > 50 µM | > 50 µM | > 50 µM | 46.2 µM | –
– | – | – | 1.16 µM | > 50 µM | 14.4 µM | CN1CCN(c2ccc(NC=C3C(=O)NC(=O)c4ccc(C=Cc5cnccn5)cc43)cc2)CC1 [Example 678, 4-{[4-(4-Methyl-piperazin-1-yl)-phenylamino]-methylene}-6-(2-pyrazin-2-yl-vinyl)-4H-isoquinoline-1,3-dione] | – | – | – | – | 9.1 µM | 3.5 µM | 6.1 µM | 10.5 µM | –
– | – | – | 0.92 µM | 15.8 µM | 15.1 µM | CN1CCN(c2ccc(NC=C3C(=O)NC(=O)c4ccc(C=Cc5ccncc5)cc43)cc2)CC1 [Example 676, 4-{[4-(4-Methyl-piperazin-1-yl)-phenylamino]-methylene}-6-(2-pyridin-4-yl-vinyl)-4H-isoquinoline-1,3-dione] | – | – | – | – | 7.7 µM | 2.5 µM | 4.6 µM | 7.3 µM | –
– | – | – | 0.23 µM | > 50 µM | > 50 µM | CN1CCN(c2ccc(NC=C3C(=O)NC(=O)c4ccc(C=Cn5ccnc5)cc43)cc2)CC1 [Example 680, 6-(2-Imidazol-1-yl-vinyl)-4-{[4-(4-methyl-piperazin-1-yl)-phenylamino]-methylene}-4H-isoquinoline-1,3-dione] | – | – | – | – | 15.2 µM | 5.9 µM | 4.7 µM | 6.9 µM | –
0.11 µM | > 50 µM | > 50 µM | – | – | – | C=CCN1CCCC1c1ccc(N/C=C2\C(=O)NC(=O)c3ccc(-c4ccsc4)cc32)cc1 (stereo not drawn) [Example 420, 4-{[4-(1-Allyl-pyrrolidin-2-yl)-phenylamino]-methylene}-6-thiophen-3-yl-4H-isoquinoline-1,3-dione] | – | – | – | – | 7.7 µM | 4 µM | 16.2 µM | 36.8 µM | –
